In PubChem BioAssay (NCI):
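Growth conditions: 96-well plates. Treatment: test compound, 48 hours, 5 concentrations. Analysis: linear interpolation between bracketing concentrations; unreached endpoints set to highest concentration. The concentration for 50% growth inhibition is given as GI50. TGI denotes the concentration required for complete inhibition of growth.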

Key:
Assay in all cases: inhibition of tumour cell growth, NCI panel, 48 h
OVCAR-8 ovarian = test system: OVCAR-8 ovarian
MDA-MB-435 = test system: MDA-MB-435
RPMI-8226 leukemia = test system: RPMI-8226 leukemia
SR leukemia = test system: SR leukemia
DU-145 prostate = test system: DU-145 prostate
OVCAR-4 ovarian = test system: OVCAR-4 ovarian
IGROV1 ovarian = test system: IGROV1 ovarian
RXF 393 renal = test system: RXF 393 renal
CCRF-CEM leukemia = test system: CCRF-CEM leukemia
SW-620 colon = test system: SW-620 colon

Row | SMILES | TGI (OVCAR-8 ovarian) | TGI (MDA-MB-435) | TGI (RPMI-8226 leukemia) | TGI (SR leukemia) | TGI (DU-145 prostate) | TGI (OVCAR-4 ovarian) | TGI (IGROV1 ovarian) | TGI (RXF 393 renal) | TGI (CCRF-CEM leukemia) | TGI (SW-620 colon) | GI50 (OVCAR-8 ovarian) | GI50 (MDA-MB-435) | GI50 (RPMI-8226 leukemia) | GI50 (SR leukemia) | GI50 (DU-145 prostate) | GI50 (OVCAR-4 ovarian) | GI50 (IGROV1 ovarian) | GI50 (RXF 393 renal) | GI50 (CCRF-CEM leukemia) | GI50 (SW-620 colon)
1 | CC1(CCCC2(C)CCNC2=O)OCCO1 (stereo not given) | > 10 µM | > 10 µM | > 10 µM | > 10 µM | > 10 µM | > 10 µM | > 10 µM | > 10 µM | > 10 µM | > 10 µM | – | – | – | – | – | – | – | – | – | –
2 | O=C1Cc2c(-c3ccc(Cl)cc3)cc(-c3ccccc3)nc2-c2ccccc2N1 | 11.6 µM | > 57.1 µM | 60.8 µM | > 100 µM | > 61.4 µM | 26.4 µM | > 50.7 µM | 20.3 µM | > 63.3 µM | > 46 µM | – | – | – | – | – | – | – | – | – | –
3 | CCN(CC)CCCCCCCCNc1c2ccc(Cl)cc2nc2ccc(OC)cc12 | 3.64 µM | 3.74 µM | 3.34 µM | 0.73 µM | 3.18 µM | 2.71 µM | 20.5 µM | 2.09 µM | 6.32 µM | 2.67 µM | 1.39 µM | 1.87 µM | 0.675 µM | 0.289 µM | 1.55 µM | 1.14 µM | 3.44 µM | 0.763 µM | 0.634 µM | 1.02 µM
4 | O=C1NN=C(c2ccc(Cl)cc2)CC1C1C(=O)N(c2ccccc2)N=C1c1ccccc1 (stereo not given) | > 100 µM | 77.4 µM | > 100 µM | > 100 µM | > 100 µM | 86.5 µM | > 100 µM | 70.9 µM | 76.3 µM | > 100 µM | – | – | – | – | – | – | – | – | – | –
5 | C(=N\Nc1ncc(-c2cc3cc4c(cc3o2)OCO4)s1)/c1c[nH]c2ccccc12 | > 100 µM | 4.44 µM | > 100 µM | > 100 µM | 3.31 µM | 4.1 µM | – | 2.78 µM | > 100 µM | 3 µM | 1.65 µM | 1.74 µM | 1.55 µM | 0.912 µM | 0.739 µM | 0.503 µM | – | 1.33 µM | 0.392 µM | 1.2 µM
6 | Cc1ccccc1N=C(N)NC#N | > 100 µM | > 100 µM | > 100 µM | > 100 µM | > 100 µM | > 100 µM | > 100 µM | > 100 µM | > 100 µM | > 100 µM | – | – | – | – | – | – | – | – | – | –
7 | CC(=O)NC1(C)CCC(C(C)(C)NC(C)=O)CC1 (stereo not given) | > 100 µM | > 100 µM | > 100 µM | > 100 µM | > 100 µM | > 100 µM | > 100 µM | > 100 µM | > 100 µM | > 100 µM | – | – | – | – | – | – | – | – | – | –
8 | Brc1ccc2c(-c3nc(-c4c[nH]c5ccccc45)cs3)c[nH]c2c1 | > 100 µM | > 100 µM | > 100 µM | > 82.3 µM | > 100 µM | > 100 µM | > 100 µM | > 68.7 µM | > 100 µM | > 86.8 µM | – | – | – | – | – | – | – | – | – | –
9 | CC1(C)O[C@H](C(=O)O)[C@@H](C(=O)O)O1 | > 100 µM | > 100 µM | > 100 µM | > 100 µM | > 100 µM | > 100 µM | > 100 µM | > 100 µM | > 100 µM | > 100 µM | – | – | – | – | – | – | – | – | – | –
10 | C/C(O)=C/c1nc2ccccc2nc1/C=C(/C)O | 83.3 µM | 59.8 µM | 56.5 µM | 77.5 µM | 70.4 µM | 48.5 µM | 54.7 µM | 65.2 µM | 45.9 µM | > 100 µM | – | – | – | – | – | – | – | – | – | –
11 | O=C(Nc1ccccc1)c1cc2c(cc1Cl)Sc1nccn1S2(=O)=O | > 100 µM | 42.2 µM | 70.5 µM | > 73 µM | 40.5 µM | 99.9 µM | > 72.1 µM | > 71.2 µM | > 75.5 µM | > 78.9 µM | – | – | – | – | – | – | – | – | – | –
12 | c1ccc2c(c1)c1c(n2CCOCCN2CCCCC2)CCCC1 | 28.4 µM | 26.6 µM | 28 µM | 36 µM | 32.6 µM | 25.3 µM | 28.1 µM | – | 29.6 µM | 35.7 µM | – | – | – | – | – | – | – | – | – | –
13 | O=S(=O)(c1ccccc1)n1c(C(O)c2ccncc2)cc2ccccc21 (stereo not given) | > 100 µM | > 100 µM | > 100 µM | > 100 µM | > 100 µM | > 100 µM | > 100 µM | > 100 µM | > 100 µM | > 100 µM | – | – | – | – | – | – | – | – | – | –
14 | Nn1c(Cc2ccc(Cl)cc2)n[nH]c1=O | > 100 µM | > 100 µM | > 100 µM | > 100 µM | > 100 µM | > 100 µM | > 100 µM | > 100 µM | > 100 µM | > 100 µM | – | – | – | – | – | – | – | – | – | –
15 | CN(Cc1c2ccccc2cc2ccccc12)S(=O)(=O)c1ccc(-c2c3nc(c(-c4ccc(S(=O)(=O)N(C)Cc5c6ccccc6cc6ccccc56)cc4)c4ccc([nH]4)c(-c4ccc(S(=O)(=O)N(C)Cc5c6ccccc6cc6ccccc56)cc4)c4nc(c(-c5ccc(S(=O)(=O)N(C)Cc6c7ccccc7cc7ccccc67)cc5)c5ccc2[nH]5)C=C4)C=C3)cc1 | > 100 µM | > 100 µM | > 100 µM | > 100 µM | > 100 µM | > 100 µM | > 100 µM | > 100 µM | > 100 µM | > 100 µM | – | – | – | – | – | – | – | – | – | –
16 | COc1cc2c(cc1OC)C1CN3C(=O)CCC3C(O)C1c1cc(OC)c(OC)cc1-2 (stereo not given) | > 100 µM | > 100 µM | > 100 µM | > 100 µM | > 100 µM | > 100 µM | > 100 µM | > 100 µM | > 100 µM | > 100 µM | – | – | – | – | – | – | – | – | – | –
17 | CC(=O)N1N=C(c2c(O)ccc3ccccc23)CC1C(=O)c1ccco1 (stereo not given) | > 100 µM | > 100 µM | 57.2 µM | 45.3 µM | > 100 µM | > 100 µM | > 100 µM | > 100 µM | 57 µM | > 100 µM | – | – | – | – | – | – | – | – | – | –
18 | COC12C=C/C(=C(/C(=O)OCc3ccncn3)C(=O)CCCCCCCCC3(OC)C=C/C(=C(/C(=O)OCc4ccncn4)C(=O)CCCCCCCC1)O3)O2 | 14.9 µM | 0.405 µM | 0.995 µM | > 100 µM | 2.72 µM | 2.16 µM | 4.46 µM | – | 1.55 µM | 1.14 µM | 0.331 µM | 0.194 µM | 0.263 µM | 0.296 µM | 0.484 µM | 0.317 µM | 0.418 µM | – | 0.251 µM | 0.303 µM
